The values below come from patent US11179380B2, “Compounds and compositions for use in treating psoriasis” (SOLVOTRIN THERAPEUTICS LTD, priority 2017, dated 2021).

A short description of this data set: Log P from reversed-phase TLC Rf/Rm values (MeOH in water mobile phases). The following applies: for Rm: calculated from Rf. As to the method:
The partition coefficient (P) is used to describe the lipophilicity of a drug. It is defined as the ratio of equilibrium concentrations of a drug in an organic phase (Corg) and an aqueous phase (Caq).
Most commonly the organic solvent is n-octanol and the other solvent is water. Hydrophobic molecules will have a high P value while hydrophilic molecules will have a low P value.
Rm values were calculated from Rf values that were obtained at three different mobile phase compositions (40, 50 and 60% MeOH in water).
The Rm value was calculated using the following equation: […]
The theoretical Rm value at 0% organic modifier was calculated by extrapolating from the calibration curves that were obtained. These values were then correlated to the literature log P of two reference compounds (methyl benzoate and paracetamol).

SMILES strings stand for the structures. Like-named read-outs stand apart in the source and are kept apart here.

Regarding `CC(=O)OC1COC2C(OC(=O)c3cccnc3)COC12` (stereo not drawn) [Isosorbide-2-Acetate-5-nicotinate, Isosorbide 2-acetate-5-nicotinate], the “Extrapolated Rm (y value)” value was 1.2763 and the “Log P (calculated)” value is 1.3369. In addition, for the setting “40% MeOH in water”, the Rf is on record as 0.2860 and the Rm was 0.3973. For the setting “50% MeOH in water”, the Rf stood at 0.3730 and the Rm is recorded as 0.2256. For the same compound, where the note is “60% MeOH in water”, the Rf came out at 0.5200 and the Rm is given as −0.0348.

Consider `CCCC(=O)O[C@H]1CO[C@H]2[C@@H]1OC[C@H]2OC(=O)c1cccnc1` [Isosorbide-2-Butyrate-5-nicotinate, Isosorbide 2-butyrate-5-nicotinate], for which the “Extrapolated Rm (y value)” value is 2.2483 and the “Log P (calculated)” value is given as 2.8118. Moreover, where the note is “40% MeOH in water”, the Rf worked out at 0.1060 and the Rm is listed as 0.9260. Moreover, for the setting “50% MeOH in water”, the Rf is listed as 0.2067 and the Rm was 0.5841. Besides, where the note is “60% MeOH in water”, the Rf was determined as 0.3530 and the Rm is reported as 0.2631.

For the compound `CCCCC(=O)O[C@H]1CO[C@H]2[C@@H]1OC[C@H]2OC(=O)c1cccnc1` [Isosorbide-2-Valeroate-5-nicotinate, Isosorbide 2-valeroate-5-nicotinate], the “Extrapolated Rm (y value)” value is 2.9143 and the “Log P (calculated)” value is recorded as 3.8225. Besides, where the note is “40% MeOH in water”, the Rf is reported as 0.0530 and the Rm is recorded as 1.2521. Further, where the note is “50% MeOH in water”, the Rf came to 0.1200 and the Rm was 0.8653. In addition, under “60% MeOH in water”, the Rf is 0.2730 and the Rm was 0.4254.

On to `O=[N+]([O-])O[C@@H]1CO[C@H]2[C@@H]1OC[C@@H]2O` [ISMN, isosorbide mononitrate, reference compound], for which the Rf amounted to 0.6060 (40% MeOH in water), 0.6530 (50% MeOH in water) and 0.7000 (60% MeOH in water). The Rm by setting is: (40% MeOH in water) −0.1870; (50% MeOH in water) −0.2746; (60% MeOH in water) −0.3680. Also, the “Log P (calculated)” value (from extrapolated Rm correlated to literature log P of methyl benzoate and paracetamol) is recorded as −0.333. Also, the “Extrapolated Rm (y value)” value (theoretical Rm at 0% organic modifier) is given as 0.176.

In the case of `CCC(=O)OC1COC2C(OC(=O)c3cccnc3)COC12` (stereo not drawn) [Isosorbide-2-Propionate-5-nicotinate, Isosorbide 2-propionate-5-nicotinate], the “Extrapolated Rm (y value)” value was 1.9553 and the “Log P (calculated)” value is given as 2.367. Moreover, where the note is “40% MeOH in water”, the Rf is recorded as 0.1600 and the Rm is listed as 0.7202. For the same compound, where the note is “50% MeOH in water”, the Rf is on record as 0.2730 and the Rm is reported as 0.4254. Moreover, where the note is “60% MeOH in water”, the Rf was 0.4400 and the Rm is on record as 0.1047.

As for `O=C(OC1COC2C(OC(=O)c3cccnc3)COC12)c1ccccc1` (stereo not drawn) [Isosorbide-2-Benzoate-5-nicotinate, Isosorbide 2-benzoate-5-nicotinate], the “Extrapolated Rm (y value)” value is listed as 3.5292 and the “Log P (calculated)” value was 4.7555. For the same compound, where the note is “40% MeOH in water”, the Rf is recorded as 0.0260 and the Rm was 1.5736. Besides, where the note is “50% MeOH in water”, the Rf was 0.0870 and the Rm is 1.0210. Under “60% MeOH in water”, the Rf worked out at 0.2060 and the Rm is listed as 0.5860.
